Test results from PubChem BioAssay (NCI).
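Growth conditions: 96-well plates. Treatment: test compound, 48 hours, 5 concentrations. Analysis: linear interpolation between bracketing concentrations; unreached endpoints set to highest concentration. GI50: concentration for 50% inhibition of growth. At the TGI there is no net growth.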

What was measured:
Assay in all cases: DTP human tumour cell line panel, 48 h
OVCAR-8 ovarian = tested on: OVCAR-8 ovarian
RXF 393 renal = tested on: RXF 393 renal
OVCAR-3 ovarian = tested on: OVCAR-3 ovarian
KM12 colon = tested on: KM12 colon
NCI-H522 lung = tested on: NCI-H522 lung
MALME-3M melanoma = tested on: MALME-3M melanoma
CCRF-CEM leukemia = tested on: CCRF-CEM leukemia
MOLT-4 leukemia = tested on: MOLT-4 leukemia
HOP-92 NSCLC = tested on: HOP-92 NSCLC
TK-10 renal = tested on: TK-10 renal
OVCAR-4 ovarian = tested on: OVCAR-4 ovarian
HCT-15 colon = tested on: HCT-15 colon
HL-60(TB) leukemia = tested on: HL-60(TB) leukemia
HCT-116 colon = tested on: HCT-116 colon
SR leukemia = tested on: SR leukemia
SK-MEL-2 melanoma = tested on: SK-MEL-2 melanoma
UACC-62 melanoma = tested on: UACC-62 melanoma
MCF7 breast = tested on: MCF7 breast
HS 578T breast = tested on: HS 578T breast
DU-145 prostate = tested on: DU-145 prostate
HOP-62 NSCLC = tested on: HOP-62 NSCLC
PC-3 prostate = tested on: PC-3 prostate
HT29 colon = tested on: HT29 colon
SF-295 CNS = tested on: SF-295 CNS
K-562 leukemia = tested on: K-562 leukemia
ACHN renal = tested on: ACHN renal
NCI-H460 lung = tested on: NCI-H460 lung
RPMI-8226 leukemia = tested on: RPMI-8226 leukemia
A498 renal = tested on: A498 renal
MDA-MB-231 breast = tested on: MDA-MB-231 breast
MDA-MB-435 = tested on: MDA-MB-435
COLO 205 colon = tested on: COLO 205 colon
OVCAR-5 ovarian = tested on: OVCAR-5 ovarian
SN12C renal = tested on: SN12C renal
IGROV1 ovarian = tested on: IGROV1 ovarian
NCI/ADR-RES ovarian = tested on: NCI/ADR-RES ovarian
BT-549 breast = tested on: BT-549 breast
CAKI-1 renal = tested on: CAKI-1 renal
LOX IMVI melanoma = tested on: LOX IMVI melanoma
786-0 renal = tested on: 786-0 renal
SF-268 CNS = tested on: SF-268 CNS
HCC-2998 colon = tested on: HCC-2998 colon
SNB-75 CNS = tested on: SNB-75 CNS
UO-31 renal = tested on: UO-31 renal
U251 CNS = tested on: U251 CNS
SK-MEL-5 melanoma = tested on: SK-MEL-5 melanoma
NCI-H23 lung = tested on: NCI-H23 lung
SW-620 colon = tested on: SW-620 colon
SNB-19 CNS = tested on: SNB-19 CNS
A549 NSCLC = tested on: A549 NSCLC
NCI-H226 lung = tested on: NCI-H226 lung

SMILES: COc1ccc(S(=O)(=O)Nc2c(/C=C\c3cc(OC)c(OC)c(OC)c3)ccc(OC)c2O)cc1
- GI50 (OVCAR-8 ovarian): 46.6 nM
- TGI (OVCAR-8 ovarian): > 100000 nM
- GI50 (RXF 393 renal): 31.8 nM
- TGI (RXF 393 renal): 21700 nM
- GI50 (OVCAR-3 ovarian): 33.8 nM
- TGI (OVCAR-3 ovarian): 1210 nM
- GI50 (KM12 colon): 35.5 nM
- TGI (KM12 colon): > 100000 nM
- GI50 (NCI-H522 lung): 20.2 nM
- TGI (NCI-H522 lung): 53.6 nM
- GI50 (MALME-3M melanoma): 15100 nM
- TGI (MALME-3M melanoma): > 100000 nM
- GI50 (CCRF-CEM leukemia): 30.1 nM
- TGI (CCRF-CEM leukemia): > 100000 nM
- GI50 (MOLT-4 leukemia): 42.3 nM
- TGI (MOLT-4 leukemia): > 100000 nM
- GI50 (HOP-92 NSCLC): 1600 nM
- TGI (HOP-92 NSCLC): 39700 nM
- GI50 (TK-10 renal): 73.2 nM
- TGI (TK-10 renal): 59100 nM
- GI50 (OVCAR-4 ovarian): 76.3 nM
- TGI (OVCAR-4 ovarian): > 100000 nM
- GI50 (HCT-15 colon): 36.6 nM
- TGI (HCT-15 colon): > 100000 nM
- GI50 (HL-60(TB) leukemia): 23.5 nM
- TGI (HL-60(TB) leukemia): 77.9 nM
- GI50 (HCT-116 colon): 32 nM
- TGI (HCT-116 colon): > 100000 nM
- GI50 (SR leukemia): 31.9 nM
- TGI (SR leukemia): 16200 nM
- GI50 (SK-MEL-2 melanoma): 43.7 nM
- TGI (SK-MEL-2 melanoma): 37100 nM
- GI50 (UACC-62 melanoma): 38.9 nM
- TGI (UACC-62 melanoma): > 100000 nM
- GI50 (MCF7 breast): 38 nM
- TGI (MCF7 breast): > 100000 nM
- GI50 (HS 578T breast): 47 nM
- TGI (HS 578T breast): > 100000 nM
- GI50 (DU-145 prostate): 42.5 nM
- TGI (DU-145 prostate): > 100000 nM
- GI50 (HOP-62 NSCLC): 39.7 nM
- TGI (HOP-62 NSCLC): > 100000 nM
- GI50 (PC-3 prostate): 40.8 nM
- TGI (PC-3 prostate): > 100000 nM
- GI50 (HT29 colon): 1400 nM
- TGI (HT29 colon): 10800 nM
- GI50 (SF-295 CNS): 33.9 nM
- TGI (SF-295 CNS): > 100000 nM
- GI50 (K-562 leukemia): 28.6 nM
- TGI (K-562 leukemia): > 100000 nM
- GI50 (ACHN renal): 69.3 nM
- TGI (ACHN renal): 70700 nM
- GI50 (NCI-H460 lung): 36.8 nM
- TGI (NCI-H460 lung): 13700 nM
- GI50 (RPMI-8226 leukemia): 46.9 nM
- TGI (RPMI-8226 leukemia): 22400 nM
- GI50 (A498 renal): 18.8 nM
- TGI (A498 renal): 85 nM
- GI50 (MDA-MB-231 breast): 50.3 nM
- TGI (MDA-MB-231 breast): 2350 nM
- GI50 (MDA-MB-435): 19 nM
- TGI (MDA-MB-435): 48.4 nM
- GI50 (COLO 205 colon): 406 nM
- TGI (COLO 205 colon): 1910 nM
- GI50 (OVCAR-5 ovarian): 1020 nM
- TGI (OVCAR-5 ovarian): > 100000 nM
- GI50 (SN12C renal): 86.9 nM
- TGI (SN12C renal): > 100000 nM
- GI50 (IGROV1 ovarian): 54 nM
- TGI (IGROV1 ovarian): > 100000 nM
- GI50 (NCI/ADR-RES ovarian): 155 nM
- TGI (NCI/ADR-RES ovarian): 598 nM
- GI50 (BT-549 breast): 50.1 nM
- TGI (BT-549 breast): 47000 nM
- GI50 (CAKI-1 renal): 51.6 nM
- TGI (CAKI-1 renal): 79800 nM
- GI50 (LOX IMVI melanoma): 45.5 nM
- TGI (LOX IMVI melanoma): 49100 nM
- GI50 (786-0 renal): 375 nM
- TGI (786-0 renal): 28000 nM
- GI50 (SF-268 CNS): 83.8 nM
- TGI (SF-268 CNS): 91600 nM
- GI50 (HCC-2998 colon): 31.6 nM
- TGI (HCC-2998 colon): 29900 nM
- GI50 (SNB-75 CNS): 25.5 nM
- TGI (SNB-75 CNS): 88800 nM
- GI50 (UO-31 renal): 61.9 nM
- TGI (UO-31 renal): 62400 nM
- GI50 (U251 CNS): 37.4 nM
- TGI (U251 CNS): > 100000 nM
- GI50 (SK-MEL-5 melanoma): 36.3 nM
- TGI (SK-MEL-5 melanoma): 201 nM
- GI50 (NCI-H23 lung): 52 nM
- TGI (NCI-H23 lung): > 100000 nM
- GI50 (SW-620 colon): 40.8 nM
- TGI (SW-620 colon): > 100000 nM
- GI50 (SNB-19 CNS): 60.2 nM
- TGI (SNB-19 CNS): > 100000 nM
- GI50 (A549 NSCLC): 45.9 nM
- TGI (A549 NSCLC): > 100000 nM
- GI50 (NCI-H226 lung): 41300 nM
- TGI (NCI-H226 lung): > 100000 nM
